From US11317632B2, “Materials amd methods for buffering active chlorine solutions” (Pharmocon LLC, priority 2017, dated 2022)
Read-outs that look alike come from different tables or passages of the source.

Experiments:
[1] = Titration curves of buffers with standardized 0.1 N NaOH or HCl, pH meter; type: physicochemical; settings: for pKa: distilled water; for buffering range in the presence of magnesium: magnesium added
Method: Aqueous solutions containing chlorine and/or hypochlorous acid are referred to herein as free active chlorine or “FAC” solutions, regardless of their method of preparation and without regard to other species that may be present. Concentrations of HOCl are reported herein as ppm active chlorine, as determined by colorimetry using N,N-diethyl-p-phenylenediamine (DPD) as indicator. Samples were diluted 999:1 with distilled water prior to addition of a DPD-1 tablet (Pollardwater, New Hyde Park, N.Y.) to a 10-ml sample, and the value for ppm chlorine was determined with a colorimeter (MW-10, Milwaukee Instruments, Rocky Mount, N.C.) Chloride concentrations were determined by agentometric (Mohr) titration. Titration curves were determined by dissolving 40 mg of buffer in 20 ml distilled water and adding standardized 0.1 N NaOH or HCl, with pH measured with a digital pH meter calibrated daily at pH 4.0. New and known buffers were synthesized by the cited literature methods, varying the starting materials as required.

[2] = cited from earlier work
[3] = forward titration with NaOH, no additive

SMILES: O=P(O)(O)c1cccc(S(=O)(=O)O)c1 [3-phosphonobenzenesulfonic acid]
- buffering from first phosphonate proton ([1]; no additive): 1.5-2 pH
- moderate buffering from second phosphonate proton ([1]; no additive): 6.5-7.5 pH

SMILES: O=P(O)(O)c1ccccc1 [Phenyphosphonic acid]
- second pKa [2]: over 7

SMILES: O=P(O)(O)c1cccc(P(=O)(O)O)c1P(=O)(O)O [benzene-1,2,3-triphosphonic acid]
- missing proton ([1]; after addition of calcium nitrate, back titration with HCl): present ant titratable
- pH at which three protons are titrated [1, 3]: 2-4 pH
- pH at which two protons are titrated [1, 3]: 7-11 pH

SMILES: O=P(O)(O)c1ccc(P(=O)(O)O)c(P(=O)(O)O)c1 [benzene-1,2,4-triphosphonic acid]
- buffering at pH 4-6 ([1]; pure triacid, no additive): completely absent
- buffering at pH 4-6 ([1]; zinc nitrate added, back titration with HCl): present

SMILES: O=P(O)(O)c1ccccc1P(=O)(O)O [benzene-1,2-diphosphonic acid]
- third pKa value ([1]; added strontium nitrate, compared to no additive): relatively unchanged
- pKa ([1]; added strontium nitrate, read-out: first two pKa values): 3 to 4
- pKa ([1]; added strontium nitrate, read-out: fourth pKa value): 9.5 to 10.5
- pKa ([1]; magnesium sulfate present, read-out: fourth pKa): < 8
- pKa ([1]; one equivalent of boric acid, read-out: third and fourth pKa values): 7 to 9
- buffering from the fourth pKa / fourth pKa value ([1]; no additive): cannot be observed
- extended buffering ([1]; one equivalent of boric acid, overlap with boric acid buffering): 8-9 pH

SMILES: O=P(O)(O)c1cccc(P(=O)(O)O)c1 [benzene-1,3-diphosphonic acid]
- pKa values observed ([1]; no additive): typical benzenephosphonic acid pKa values

SMILES: O=P(O)(O)C(Cl)(Cl)P(=O)(O)O [clodronic acid, dichloromethanediphosphonic acid, reference compound]
- pKa ([1]; zinc nitrate (2 equivalents) added prior to titration, read-out: third and fourth pKa values): 3.5 to 4.5
- buffering range in the presence of magnesium [1]: 5-8 pH
- buffering from the first two pKas / first two protons ([1]; no additive): 2-3 pH
- buffering from the fourth pKa / fourth pKa value ([1]; no additive): 9-10 pH
- buffering from the third pKa / third proton ([1]; no additive): 6-7 pH

SMILES: O=P(O)(O)C(F)(F)C(F)(F)F [pentafluoroethylphosphonic acid]
- buffering from the first pKa ([1]; no additive): 2.5-3.5 pH
- buffering from the second pKa ([1]; no additive): 4-5 pH

SMILES: O=P(O)(O)O [phosphate, phosphoric acid, reference compound]
- buffering capacity in the pH range 3-6 ([1]; no additive): no buffering capacity
- buffering capacity, lower range ([1]; no additive): 2-3 pH
- buffering capacity, upper range ([1]; no additive): 7-8 pH

SMILES: O=P(O)(O)c1cccc(P(=O)(O)O)n1 [pyridine-2,6-diphosphonic acid]
- buffering range in the presence of magnesium [1]: 2-3 pH
- buffering, titration with NaOH from pH 2 to 11 ([1]; no additive): only modest buffering
